The structures appear in SMILES notation.

This note sets out measurements from the supplement of paper PMC11061612.

Assay in all cases: Bliss excess, mean over the matrix (fraction); higher = more synergy
In assay [1] the test system is AMO-1 (Plasma Cell Myeloma). The method in brief: (§1)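 After 24 hours at 37°C and 5% CO2 in 1536-well plates, cells in DMEM/F12 or RPMI plus 10% FBS received two-drug dose matrices for 72 hours. Viability came from CellTiter-Glo 2.0 luminescence and was scaled as inhibition, anchored at 0 by vehicle wells and at 1 by blank wells. Combination Emax is taken as the second-highest inhibition in the matrix, and Bliss excess as the observed combination effect less EA + EB − EA·EB, with EA and EB the single-agent effects.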

For assay [2], the system named is BT-549 (Breast Carcinoma). The method in brief: as §1
The test system of assay [3] is C-4-I (Cervical Carcinoma). A digest of the protocol: as §1
Another assay relates to D-263MG (Glioblastoma). The method in brief:
as §1

In assay [4] the test system is EFM-19 (Breast Carcinoma). The method in brief: as §1
Assay [5] has as its system HSC-4 (Oral Cavity Carcinoma). The method in brief: as §1
Assay [6] concerns Hs-766T (Pancreatic Carcinoma). A digest of the protocol:
as §1

Assay [7] relates to KARPAS-299 (T-Cell Non-Hodgkin's Lymphoma). The method in brief:
as §1

Assay [8] relates to KYSE-450 (Esophageal Squamous Cell Carcinoma). The method in brief:
as §1

Assay [9] has as its system LU-65 (Non-Small Cell Lung Carcinoma). A digest of the protocol:
as §1

Assay [10] relates to MLMA (Other Blood Carcinomas). The method in brief:
as §1

The subject of assay [11] is NCI-H1915 (Non-Small Cell Lung Carcinoma). The method in brief:
as §1

Assay [12] relates to NCI-H727 (Other Solid Carcinomas). A digest of the protocol:
as §1

In assay [13] the test system is OE19 (Esophageal Adenocarcinoma). The method in brief: as §1
Assay [14] has as its system OSC-20 (Oral Cavity Carcinoma). A digest of the protocol: as §1
The subject of assay [15] is OVCAR-4 (Ovarian Carcinoma). A digest of the protocol:
as §1

The test system of assay [16] is SCC-15 (Oral Cavity Carcinoma). A digest of the protocol: as §1
In assay [17] the test system is SW13 (Other Solid Carcinomas). A digest of the protocol: as §1
Another assay relates to TGW (Neuroblastoma). A digest of the protocol: as §1
The subject of the next assay is UACC-62 (Melanoma). A digest of the protocol: as §1

Take `CC1(C)CCC(CN2CCN(c3ccc(C(=O)NS(=O)(=O)c4ccc(NCC5CCOCC5)c([N+](=O)[O-])c4)c(Oc4cnc5[nH]ccc5c4)c3)CC2)=C(c2ccc(Cl)cc2)C1` [Venetoclax] + C[C@@H](Nc1cc(F)cc(F)c1)c1cc(C(=O)N(C)C)cc2c(=O)cc(N3CCOCC3)oc12 [AZD8186] (first compound max 1 µM, 7x7, partner max 3 µM): the Bliss excess is -0.0065 in assay [1]; -0.0328 in assay [2]; 0.0078 in assay [3]; -0.0044 in the assay on D-263MG (Glioblastoma); -0.0099 in assay [4]; -0.0369 in [5]. In addition, the Bliss excess in assay [6] is -0.0487; in [7] it was -0.0074; in assay [8] it was -0.0457; in assay [9] it was -0.0235; in assay [10], -0.0327; in assay [11], -0.0264. Further, the Bliss excess is -0.0654 in assay [12]; -0.0065 in assay [13]; -0.0516 in [14]; -0.0186 in assay [15]; -0.0348 in [16]; -0.0263 in assay [17]. The figures for the Bliss excess in the assay on TGW (Neuroblastoma) and in the assay with UACC-62 (Melanoma) were 0.0136 and 0.0118, respectively.
As for `CC1(C)CCC(CN2CCN(c3ccc(C(=O)NS(=O)(=O)c4ccc(NCC5CCOCC5)c([N+](=O)[O-])c4)c(Oc4cnc5[nH]ccc5c4)c3)CC2)=C(c2ccc(Cl)cc2)C1` [Venetoclax] + Cc1cc2ncnn2cc1Nc1ncc2c(n1)n(C1CCOCC1)c(=O)n2C [AZD7648] (first compound max 1 µM, 7x7, partner max 10 µM), the Bliss excess is -0.0116 in assay [1]; -0.0328 in assay [2]; 0.0131 in assay [3]; -0.0572 in the assay on D-263MG (Glioblastoma); -0.0469 in [4]; -0.058 in [5]. Further, the Bliss excess was -0.0756 in assay [6]; 0.0487 in [7]; -0.0515 in assay [8]; -0.0418 in assay [9]; -0.0323 in [10]; 0.0029 in assay [11]. Also, the Bliss excess in assay [12] is -0.0634; in assay [13], -0.0253; in [14], -0.0062; in assay [15] it was -0.0163; in assay [16] it was -0.0303; in assay [17] it was 0.0127. Also, the Bliss excess with TGW (Neuroblastoma) was 0.0025; with UACC-62 (Melanoma), -0.0424.
Regarding `CC1(C)CCC(CN2CCN(c3ccc(C(=O)NS(=O)(=O)c4ccc(NCC5CCOCC5)c([N+](=O)[O-])c4)c(Oc4cnc5[nH]ccc5c4)c3)CC2)=C(c2ccc(Cl)cc2)C1` [Venetoclax] + Cn1cnc2c(F)c(Nc3ccc(Br)cc3Cl)c(C(=O)NOCCO)cc21 [Selumetinib] (first compound max 1 µM, 7x7, partner max 3 µM), the Bliss excess in assay [1] is 0.0092; in assay [2] it was -0.0691; in assay [3] it was -0.0299; with D-263MG (Glioblastoma) it was -0.0292; in [4] it was -0.0607; in assay [5] it was -0.0211. The Bliss excess is -0.0346 in [6]; -0.0102 in assay [7]; -0.0432 in [8]; -0.0153 in assay [9]; 0.0401 in [10]; -0.0541 in assay [11]. The Bliss excess in assay [12] was -0.0534; in assay [13] it was -0.0484; in assay [14] it was -0.038; in assay [15], -0.02; in assay [16], -0.0428; in [17] it was 0.0137. In addition, the Bliss excess in the assay with TGW (Neuroblastoma) is 0.0099; in the assay with UACC-62 (Melanoma), -0.0235.
